Measured values: ChEMBL document CHEMBL1201862, “PubChem BioAssay data set” (2004)
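Assay format: 96-well plates, 48-hour exposure. GI50 is the concentration that inhibits growth by half.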 The source made the active and inactive calls. No stated cut-off is given here; in the data, active = GI50 up to about 1.1 µM and inactive = higher. Starred links: 1 amine or outer side, 2 acyl side, 3 side chain; linkers in the order of their positions; H or OH if unused. Non-standard residues stand in square brackets, D forms with d. Residues, ends and D or L forms follow the SMILES beside them. *: point of attachment. X34 = CC(=O)N(C)SCC(N[*:1])C(=O)[*:2]; Cbz = O=C(OCc1ccccc1)*; Bn = c1ccc(C*)cc1; For = O=C*

What was measured:
Test in all cases: inhibition of tumour cell growth, NCI panel, 48 h
SNB-19 = system: SNB-19
SK-MEL-2 = system: SK-MEL-2
SR = system: SR
TK-10 = system: TK-10
SW-620 = system: SW-620
HCT-15 = system: HCT-15
HT-29 = system: HT-29
CAKI-1 = system: CAKI-1
EKVX = system: EKVX
MDA-MB-231 = system: MDA-MB-231
OVCAR-8 = system: OVCAR-8
Malme-3M = system: Malme-3M
UO-31 = system: UO-31
HCT-116 = system: HCT-116
NCI-H23 = system: NCI-H23
786-0 = system: 786-0
PC-3 = system: PC-3
T47D = system: T47D
NCI-H460 = system: NCI-H460
K562 = system: K562

Structure (SMILES) | GI50 (SNB-19) | GI50 (SK-MEL-2) | GI50 (SR) | GI50 (TK-10) | GI50 (SW-620) | GI50 (HCT-15) [µM] | GI50 (HT-29) | GI50 (CAKI-1) | GI50 (EKVX) | GI50 (MDA-MB-231) | GI50 (OVCAR-8) | GI50 (Malme-3M) | GI50 (UO-31) | GI50 (HCT-116) | GI50 (NCI-H23) | GI50 (786-0) | GI50 (PC-3) | GI50 (T47D) | GI50 (NCI-H460) | GI50 (K562)
O=c1[nH]c2nc3ccccc3c(=O)n2/c1=C/c1ccc(O)cc1 | 21 µM (inactive) | 75.3 µM (inactive) | 16.9 µM (inactive) | 53 µM (inactive) | 22.6 µM (inactive) | 30.9 | 24 µM (inactive) | 43.3 µM (inactive) | 54.3 µM (inactive) | 60.3 µM (inactive) | 22 µM (inactive) | 39.1 µM (inactive) | 53.7 µM (inactive) | 36.8 µM (inactive) | 49 µM (inactive) | 34.8 µM (inactive) | 45.3 µM (inactive) | 42.2 µM (inactive) | – | –
Cc1cccc(-c2cccc(COCc3cccc(-c4cccc(CO)n4)n3)n2)n1 | > 50 µM (inactive) | > 50 µM (inactive) | > 50 µM (inactive) | 32.5 µM (inactive) | > 50 µM (inactive) | 35.2 | 40.8 µM (inactive) | 34.4 µM (inactive) | 35.5 µM (inactive) | 24.2 µM (inactive) | 16.2 µM (inactive) | – | > 50 µM (inactive) | > 50 µM (inactive) | – | 38.5 µM (inactive) | 18.5 µM (inactive) | 31.2 µM (inactive) | 43.8 µM (inactive) | > 50 µM (inactive)
COc1ccccc1N1C(=O)/C(=C\c2ccccc2)SC1c1cc(OC)c(OC)c(OC)c1 (stereo not given) | 66.8 µM (inactive) | 7.06 µM (inactive) | 33.7 µM (inactive) | > 100 µM (inactive) | – | 32.3 | 33.3 µM (inactive) | 34.2 µM (inactive) | 37.8 µM (inactive) | 23.2 µM (inactive) | 42 µM (inactive) | 45.5 µM (inactive) | 45.4 µM (inactive) | 31.8 µM (inactive) | 43.9 µM (inactive) | 32.2 µM (inactive) | 21.4 µM (inactive) | 5.97 µM (inactive) | – | 41.7 µM (inactive)
COC(=O)c1cc(C)ccc1/C=C1\Cc2cccc(C)c2C1=O | > 100 µM (inactive) | – | 24.7 µM (inactive) | > 100 µM (inactive) | 31.6 µM (inactive) | 18.8 | 12.8 µM (inactive) | 49.2 µM (inactive) | 33.1 µM (inactive) | 26.7 µM (inactive) | 14.1 µM (inactive) | 20.5 µM (inactive) | 44.7 µM (inactive) | 18.1 µM (inactive) | > 100 µM (inactive) | 50.4 µM (inactive) | 8.04 µM (inactive) | 6.68 µM (inactive) | > 100 µM (inactive) | 9.02 µM (inactive)
Cc1cc2ccc(N)nc2nc1O | > 100 µM (inactive) | > 100 µM (inactive) | > 100 µM (inactive) | > 100 µM (inactive) | > 100 µM (inactive) | > 100 | > 100 µM (inactive) | > 100 µM (inactive) | > 100 µM (inactive) | > 100 µM (inactive) | > 100 µM (inactive) | > 100 µM (inactive) | > 100 µM (inactive) | > 100 µM (inactive) | > 100 µM (inactive) | > 100 µM (inactive) | > 100 µM (inactive) | > 100 µM (inactive) | > 100 µM (inactive) | –
CCc1ncnc2cc(OCC3CO3)c(OC)cc12 (stereo not given) | 6.52 µM (inactive) | 3.32 µM (inactive) | 0.209 µM (active) | 10.8 µM (inactive) | 0.735 µM (active) | 3.09 | 4.83 µM (inactive) | 5.06 µM (inactive) | 10.6 µM (inactive) | 7.24 µM (inactive) | 0.647 µM (active) | 12.3 µM (inactive) | 2.03 µM (inactive) | 0.577 µM (active) | 2.61 µM (inactive) | 0.902 µM (active) | 7.31 µM (inactive) | 20.9 µM (inactive) | 5.53 µM (inactive) | 1.1 µM (active)
O=CN(CCN1CCCC1)C1CCc2cc(Cl)c(Cl)cc2C1 (stereo not given) | 0.851 µM (active) | – | 23.9 µM (inactive) | 16.3 µM (inactive) | 27.3 µM (inactive) | 15.8 | 5.75 µM (inactive) | 18.9 µM (inactive) | 27.2 µM (inactive) | 11 µM (inactive) | 20.6 µM (inactive) | 13.6 µM (inactive) | 14.1 µM (inactive) | 10.6 µM (inactive) | 17.4 µM (inactive) | 7.55 µM (inactive) | 11.4 µM (inactive) | 11.1 µM (inactive) | 0.196 µM (active) | 20.9 µM (inactive)
CCOC(=O)c1nc2ccc(C(F)(F)F)cc2nc1Oc1ccc(C#N)cc1 | 17.7 µM (inactive) | 15.7 µM (inactive) | 81.5 µM (inactive) | 30.1 µM (inactive) | 40.3 µM (inactive) | 38.4 | 23.3 µM (inactive) | 20.3 µM (inactive) | 14 µM (inactive) | 12.9 µM (inactive) | 19.6 µM (inactive) | – | 40.3 µM (inactive) | 48.5 µM (inactive) | 40.3 µM (inactive) | 18 µM (inactive) | 17.3 µM (inactive) | 28.4 µM (inactive) | 46.7 µM (inactive) | > 100 µM (inactive)
NS(=O)(=O)c1ccc(NC(=S)N/C=C2\C(=O)Nc3ccccc3C2=O)cc1 | > 100 µM (inactive) | > 100 µM (inactive) | > 100 µM (inactive) | > 100 µM (inactive) | > 100 µM (inactive) | > 100 | > 100 µM (inactive) | 20.1 µM (inactive) | > 100 µM (inactive) | > 100 µM (inactive) | > 100 µM (inactive) | – | > 100 µM (inactive) | > 100 µM (inactive) | > 100 µM (inactive) | > 100 µM (inactive) | > 100 µM (inactive) | > 100 µM (inactive) | > 100 µM (inactive) | > 100 µM (inactive)
C=CCC(C(=O)Nc1cccc2nc[nH]c12)C(=O)OCC (stereo not given) | > 100 µM (inactive) | > 100 µM (inactive) | > 100 µM (inactive) | > 100 µM (inactive) | > 100 µM (inactive) | > 100 | > 100 µM (inactive) | – | > 100 µM (inactive) | > 100 µM (inactive) | > 100 µM (inactive) | – | > 100 µM (inactive) | > 100 µM (inactive) | – | > 100 µM (inactive) | > 100 µM (inactive) | > 100 µM (inactive) | > 100 µM (inactive) | > 100 µM (inactive)
Nc1ccccc1C(=O)CC1OC(=O)c2ccccc21 (stereo not given) | 42.1 µM (inactive) | 14 µM (inactive) | 46.5 µM (inactive) | > 100 µM (inactive) | > 100 µM (inactive) | 86.5 | > 100 µM (inactive) | – | 34.9 µM (inactive) | > 100 µM (inactive) | 51.5 µM (inactive) | 50.5 µM (inactive) | > 100 µM (inactive) | 51.6 µM (inactive) | – | 88.5 µM (inactive) | 41.7 µM (inactive) | 81.8 µM (inactive) | 61.2 µM (inactive) | > 100 µM (inactive)
COc1ccc(-c2cc(-c3ccc(Nc4ccnc5cc(C(F)(F)F)ccc45)cc3)nc(N)c2C#N)cc1 | 42.7 µM (inactive) | 45.2 µM (inactive) | 26.7 µM (inactive) | > 100 µM (inactive) | 62.1 µM (inactive) | 60.5 | > 100 µM (inactive) | > 100 µM (inactive) | > 100 µM (inactive) | 99.8 µM (inactive) | – | > 100 µM (inactive) | > 100 µM (inactive) | 23.2 µM (inactive) | > 100 µM (inactive) | > 100 µM (inactive) | 45.1 µM (inactive) | 46.1 µM (inactive) | > 100 µM (inactive) | > 100 µM (inactive)
Nc1nccc(NCC2(CO)CCC2)n1 | – | > 100 µM (inactive) | > 100 µM (inactive) | 36.7 µM (inactive) | > 100 µM (inactive) | > 100 | > 100 µM (inactive) | 63.4 µM (inactive) | > 100 µM (inactive) | > 100 µM (inactive) | > 100 µM (inactive) | > 100 µM (inactive) | > 100 µM (inactive) | > 100 µM (inactive) | > 100 µM (inactive) | > 100 µM (inactive) | > 100 µM (inactive) | > 100 µM (inactive) | > 100 µM (inactive) | > 100 µM (inactive)
O=C(/C=C/c1ccc(/C=C/C(=O)c2ccc(O)cc2)cc1)c1ccc(O)cc1 | > 100 µM (inactive) | > 100 µM (inactive) | > 100 µM (inactive) | > 100 µM (inactive) | > 100 µM (inactive) | > 100 | 58.1 µM (inactive) | > 100 µM (inactive) | > 100 µM (inactive) | > 100 µM (inactive) | > 100 µM (inactive) | – | > 100 µM (inactive) | > 100 µM (inactive) | > 100 µM (inactive) | 74 µM (inactive) | > 100 µM (inactive) | > 100 µM (inactive) | > 100 µM (inactive) | > 100 µM (inactive)
CC(=O)N(C)SCC(NC(=O)C(Cc1ccccc1)NC(=O)OCc1ccccc1)C(=O)NC(Cc1ccccc1)C(=O)NC(Cc1cn(C=O)c2ccccc12)C(=O)NC(CCCCNC(=O)OCc1ccccc1)C(=O)NC(C(=O)NC(CSN(C)C(C)=O)C(=O)NC(C(N)=O)C(C)OCc1ccccc1)C(C)OCc1ccccc1 (stereo not given) (Cbz-F[X34]FW(For)K(Cbz)T(Bn)[X34]T(Bn)-NH2; configuration not given here) | 18.7 µM (inactive) | 3.77 µM (inactive) | > 100 µM (inactive) | 20.6 µM (inactive) | > 100 µM (inactive) | > 100 | > 100 µM (inactive) | – | > 100 µM (inactive) | 14.7 µM (inactive) | 26.1 µM (inactive) | 40.4 µM (inactive) | 45.7 µM (inactive) | 61.5 µM (inactive) | 32 µM (inactive) | 24.1 µM (inactive) | > 100 µM (inactive) | > 100 µM (inactive) | > 100 µM (inactive) | > 100 µM (inactive)
